Three compounds from the kinase profiling compilation of Christmann-Franck et al. (2016) can be followed below.

Structures are written as SMILES.

MAPKAPK3 (human), sequence (Q16644 whole entry, looked up): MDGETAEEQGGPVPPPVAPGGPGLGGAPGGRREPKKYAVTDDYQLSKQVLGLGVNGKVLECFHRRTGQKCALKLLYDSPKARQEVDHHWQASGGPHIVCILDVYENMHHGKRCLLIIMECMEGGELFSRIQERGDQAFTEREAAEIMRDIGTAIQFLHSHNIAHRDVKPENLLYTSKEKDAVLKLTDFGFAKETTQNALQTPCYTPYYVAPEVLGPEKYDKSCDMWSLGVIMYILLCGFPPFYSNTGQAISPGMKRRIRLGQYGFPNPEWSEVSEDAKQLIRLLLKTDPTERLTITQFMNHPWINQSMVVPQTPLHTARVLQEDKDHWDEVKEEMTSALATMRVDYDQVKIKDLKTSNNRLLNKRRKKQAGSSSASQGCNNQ
CAMK1G (human), sequence (Q96NX5 whole entry, looked up): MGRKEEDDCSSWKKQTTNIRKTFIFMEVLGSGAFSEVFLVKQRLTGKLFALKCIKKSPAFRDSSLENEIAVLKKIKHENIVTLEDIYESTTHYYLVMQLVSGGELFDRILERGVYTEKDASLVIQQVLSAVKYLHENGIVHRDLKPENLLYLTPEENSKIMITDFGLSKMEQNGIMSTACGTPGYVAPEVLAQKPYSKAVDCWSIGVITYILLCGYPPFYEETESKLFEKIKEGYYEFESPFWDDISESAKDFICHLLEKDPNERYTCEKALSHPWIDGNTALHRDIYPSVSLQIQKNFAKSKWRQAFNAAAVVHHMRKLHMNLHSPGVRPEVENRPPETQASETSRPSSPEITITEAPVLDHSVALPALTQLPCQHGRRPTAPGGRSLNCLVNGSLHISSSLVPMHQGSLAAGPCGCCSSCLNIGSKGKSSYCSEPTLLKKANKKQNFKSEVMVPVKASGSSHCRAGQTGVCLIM
RPS6KA4 KD2 (human), sequence (O75676 whole entry, looked up): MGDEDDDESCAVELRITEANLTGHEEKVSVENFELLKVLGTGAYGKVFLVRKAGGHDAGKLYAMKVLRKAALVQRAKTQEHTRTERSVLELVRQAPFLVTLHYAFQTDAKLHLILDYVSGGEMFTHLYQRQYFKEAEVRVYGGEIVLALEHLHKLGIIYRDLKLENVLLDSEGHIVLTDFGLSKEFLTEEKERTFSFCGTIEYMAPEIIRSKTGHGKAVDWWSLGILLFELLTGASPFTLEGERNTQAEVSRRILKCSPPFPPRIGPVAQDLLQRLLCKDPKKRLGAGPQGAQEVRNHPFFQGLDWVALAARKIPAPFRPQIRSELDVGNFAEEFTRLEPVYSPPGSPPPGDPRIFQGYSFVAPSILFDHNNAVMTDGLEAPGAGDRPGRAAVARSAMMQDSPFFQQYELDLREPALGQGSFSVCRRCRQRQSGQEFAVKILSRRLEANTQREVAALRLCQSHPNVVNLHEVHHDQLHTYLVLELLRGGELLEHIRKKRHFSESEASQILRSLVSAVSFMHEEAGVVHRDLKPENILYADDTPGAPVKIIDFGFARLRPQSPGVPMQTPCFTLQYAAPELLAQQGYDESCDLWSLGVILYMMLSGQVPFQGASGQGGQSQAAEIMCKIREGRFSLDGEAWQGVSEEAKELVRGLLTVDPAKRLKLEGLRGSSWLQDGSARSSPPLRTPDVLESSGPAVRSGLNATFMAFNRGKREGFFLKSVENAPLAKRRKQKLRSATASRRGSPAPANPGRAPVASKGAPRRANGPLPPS
LIMK1 (human), sequence (P53667 whole entry, looked up): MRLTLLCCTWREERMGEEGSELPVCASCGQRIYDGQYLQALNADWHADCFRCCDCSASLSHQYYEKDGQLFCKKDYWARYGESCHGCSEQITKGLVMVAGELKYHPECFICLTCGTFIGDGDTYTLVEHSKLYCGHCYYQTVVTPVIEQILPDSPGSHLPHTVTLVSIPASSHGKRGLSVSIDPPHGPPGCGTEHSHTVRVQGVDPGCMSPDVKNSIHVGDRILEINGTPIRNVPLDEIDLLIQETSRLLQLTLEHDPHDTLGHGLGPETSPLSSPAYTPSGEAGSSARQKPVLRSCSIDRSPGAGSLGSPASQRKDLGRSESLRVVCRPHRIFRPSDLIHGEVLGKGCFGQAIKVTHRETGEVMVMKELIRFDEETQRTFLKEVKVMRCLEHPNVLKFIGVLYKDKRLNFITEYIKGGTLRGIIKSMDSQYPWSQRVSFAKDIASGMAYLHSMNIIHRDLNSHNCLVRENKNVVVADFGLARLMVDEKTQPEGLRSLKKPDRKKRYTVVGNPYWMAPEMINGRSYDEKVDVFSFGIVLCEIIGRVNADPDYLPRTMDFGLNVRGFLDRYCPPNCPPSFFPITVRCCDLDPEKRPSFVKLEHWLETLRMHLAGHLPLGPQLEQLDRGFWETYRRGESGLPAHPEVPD
EPHA3 (human), sequence (P29320 whole entry, looked up): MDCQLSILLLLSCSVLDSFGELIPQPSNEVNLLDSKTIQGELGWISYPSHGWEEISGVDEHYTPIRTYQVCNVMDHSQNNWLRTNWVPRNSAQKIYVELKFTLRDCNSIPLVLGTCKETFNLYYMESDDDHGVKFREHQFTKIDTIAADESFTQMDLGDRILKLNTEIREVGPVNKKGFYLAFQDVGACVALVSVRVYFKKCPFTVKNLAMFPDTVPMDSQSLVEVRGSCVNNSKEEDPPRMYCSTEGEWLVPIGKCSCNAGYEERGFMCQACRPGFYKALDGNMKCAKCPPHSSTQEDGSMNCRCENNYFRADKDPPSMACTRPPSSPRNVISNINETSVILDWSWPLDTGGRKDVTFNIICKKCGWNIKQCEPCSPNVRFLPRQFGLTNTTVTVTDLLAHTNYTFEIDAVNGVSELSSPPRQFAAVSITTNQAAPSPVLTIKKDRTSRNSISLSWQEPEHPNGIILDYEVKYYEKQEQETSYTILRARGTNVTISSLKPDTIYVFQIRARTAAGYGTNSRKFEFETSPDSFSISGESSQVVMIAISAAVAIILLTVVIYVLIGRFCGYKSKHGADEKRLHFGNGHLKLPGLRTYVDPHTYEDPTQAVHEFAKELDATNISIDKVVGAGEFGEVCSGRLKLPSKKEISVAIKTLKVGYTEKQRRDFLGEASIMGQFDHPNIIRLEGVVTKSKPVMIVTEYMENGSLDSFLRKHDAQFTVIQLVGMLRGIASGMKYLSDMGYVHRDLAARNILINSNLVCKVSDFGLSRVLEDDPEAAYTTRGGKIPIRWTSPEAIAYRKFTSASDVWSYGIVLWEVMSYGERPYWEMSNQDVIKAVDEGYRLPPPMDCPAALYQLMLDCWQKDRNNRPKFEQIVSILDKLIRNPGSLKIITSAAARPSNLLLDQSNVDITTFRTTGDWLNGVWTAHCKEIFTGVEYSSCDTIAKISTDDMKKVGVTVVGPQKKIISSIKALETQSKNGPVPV
GSK3B (human), sequence (P49841 whole entry, looked up): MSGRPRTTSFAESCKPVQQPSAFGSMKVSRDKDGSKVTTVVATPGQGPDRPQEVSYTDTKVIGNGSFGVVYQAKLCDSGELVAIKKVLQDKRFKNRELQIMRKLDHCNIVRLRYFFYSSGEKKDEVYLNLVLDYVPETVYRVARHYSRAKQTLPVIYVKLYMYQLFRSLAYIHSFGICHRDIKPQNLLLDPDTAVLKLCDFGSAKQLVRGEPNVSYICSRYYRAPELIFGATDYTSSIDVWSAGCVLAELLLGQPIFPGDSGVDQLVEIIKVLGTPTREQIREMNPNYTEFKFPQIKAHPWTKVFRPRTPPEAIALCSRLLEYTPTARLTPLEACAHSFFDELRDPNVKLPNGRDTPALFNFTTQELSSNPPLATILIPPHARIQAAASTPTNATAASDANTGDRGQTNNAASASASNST

One experiment has as its target EPHA3 (human) (UniProt P29320). The experiment can be described thus: radiometric filter-binding kinase assay, Kinase HotSpot. Conditions: compound 0.5 µM; ATP 10 µM.
For `CNc1cc2c(Nc3cccc(Br)c3)ncnc2cn1`, the residual activity turned out to be 96.1%.
Same read-out and setting: to `O=C1Nc2ccc(Cl)cc2/C1=C/c1cc(Cl)c(O)c(Cl)c1` belongs 82.5%.
`Oc1cccc(-c2nc(N3CCOCC3)c3oc4ncccc4c3n2)c1`: the residual activity amounted to 93.7%.

For another experiment, the target named is YES1 (human) (UniProt P07947). The description is as above. Conditions: compound 0.5 µM; ATP 10 µM.
YES1 (human), sequence (P07947 whole entry, looked up): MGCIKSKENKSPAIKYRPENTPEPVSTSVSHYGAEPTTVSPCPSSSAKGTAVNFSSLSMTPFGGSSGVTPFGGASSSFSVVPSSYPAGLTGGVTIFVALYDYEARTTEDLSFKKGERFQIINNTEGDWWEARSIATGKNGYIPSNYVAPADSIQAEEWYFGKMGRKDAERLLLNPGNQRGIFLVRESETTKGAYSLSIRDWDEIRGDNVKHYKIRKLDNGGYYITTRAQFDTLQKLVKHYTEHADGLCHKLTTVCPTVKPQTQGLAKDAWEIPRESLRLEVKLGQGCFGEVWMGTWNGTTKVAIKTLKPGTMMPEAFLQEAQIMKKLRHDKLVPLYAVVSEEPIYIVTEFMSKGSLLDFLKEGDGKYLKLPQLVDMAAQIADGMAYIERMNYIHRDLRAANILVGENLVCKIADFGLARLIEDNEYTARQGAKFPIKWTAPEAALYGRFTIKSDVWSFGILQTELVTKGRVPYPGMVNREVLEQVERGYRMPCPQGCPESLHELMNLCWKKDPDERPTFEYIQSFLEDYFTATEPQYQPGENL
As to `CNc1cc2c(Nc3cccc(Br)c3)ncnc2cn1`, the residual activity came out at 74.7%.
On to `O=C1Nc2ccc(Cl)cc2/C1=C/c1cc(Cl)c(O)c(Cl)c1`, for which the residual activity came out at 78.3%.
The same measure, in the same setting: next, `Oc1cccc(-c2nc(N3CCOCC3)c3oc4ncccc4c3n2)c1`: 94.3%.

A further experiment concerns the target CAMK1G (human) (UniProt Q96NX5). The description is as above. To be noted: compound 0.5 µM; ATP 10 µM.
On to `CNc1cc2c(Nc3cccc(Br)c3)ncnc2cn1`, for which the residual activity is 97.9%.
Same read-out and setting: to `O=C1Nc2ccc(Cl)cc2/C1=C/c1cc(Cl)c(O)c(Cl)c1` belongs 96.6%; to `Oc1cccc(-c2nc(N3CCOCC3)c3oc4ncccc4c3n2)c1`, 99.2%.

For another experiment, the target named is CAMKK2 (human) (UniProt Q96RR4). The experiment is described as above. Conditions: compound 0.5 µM; ATP 10 µM.
CAMKK2 (human), sequence (Q96RR4 whole entry, looked up): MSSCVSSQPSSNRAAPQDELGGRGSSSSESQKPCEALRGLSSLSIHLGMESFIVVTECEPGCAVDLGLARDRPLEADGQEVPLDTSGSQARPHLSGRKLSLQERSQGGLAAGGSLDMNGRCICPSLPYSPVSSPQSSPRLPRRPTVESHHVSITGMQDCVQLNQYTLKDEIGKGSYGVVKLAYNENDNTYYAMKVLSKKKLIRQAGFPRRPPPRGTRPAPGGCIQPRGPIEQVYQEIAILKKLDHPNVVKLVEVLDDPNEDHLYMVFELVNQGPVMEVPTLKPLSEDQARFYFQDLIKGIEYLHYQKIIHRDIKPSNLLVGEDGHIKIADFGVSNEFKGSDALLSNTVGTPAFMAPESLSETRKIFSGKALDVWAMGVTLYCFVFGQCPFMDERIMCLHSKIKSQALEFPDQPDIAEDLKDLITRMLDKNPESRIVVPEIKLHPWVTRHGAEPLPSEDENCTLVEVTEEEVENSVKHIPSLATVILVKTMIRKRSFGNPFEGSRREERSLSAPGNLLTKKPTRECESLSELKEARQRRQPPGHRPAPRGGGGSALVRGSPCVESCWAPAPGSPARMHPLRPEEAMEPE
As for `CNc1cc2c(Nc3cccc(Br)c3)ncnc2cn1`, the residual activity stood at 80%.
For `O=C1Nc2ccc(Cl)cc2/C1=C/c1cc(Cl)c(O)c(Cl)c1`, the residual activity turned out to be 51.5%.
As to `Oc1cccc(-c2nc(N3CCOCC3)c3oc4ncccc4c3n2)c1`, the residual activity was 79.8%.

A further experiment has as its target STK25 (human) (UniProt O00506). The experiment is described as above. Conditions: compound 0.5 µM; ATP 10 µM.
Consider `CNc1cc2c(Nc3cccc(Br)c3)ncnc2cn1`, for which the residual activity is 102%.
Same read-out and setting: next, `O=C1Nc2ccc(Cl)cc2/C1=C/c1cc(Cl)c(O)c(Cl)c1`: 94%.
Still for that read-out and setting: to `Oc1cccc(-c2nc(N3CCOCC3)c3oc4ncccc4c3n2)c1` belongs 93.4%.

A further experiment concerns the target MAPKAPK3 (human) (UniProt Q16644). The description is as above. Conditions: compound 0.5 µM; ATP 10 µM.
`CNc1cc2c(Nc3cccc(Br)c3)ncnc2cn1`: the residual activity was 99.2%.
The same measure, in the same setting: next, `O=C1Nc2ccc(Cl)cc2/C1=C/c1cc(Cl)c(O)c(Cl)c1`: 88.4%; `Oc1cccc(-c2nc(N3CCOCC3)c3oc4ncccc4c3n2)c1`: 93.9%.

Another experiment deals with MAPK1 (human) (UniProt P28482). The experiment is described as above. Conditions: compound 0.5 µM; ATP 10 µM.
On to `CNc1cc2c(Nc3cccc(Br)c3)ncnc2cn1`, for which the residual activity stood at 88.6%.
Same read-out and setting: next, `O=C1Nc2ccc(Cl)cc2/C1=C/c1cc(Cl)c(O)c(Cl)c1`: 84.3%; `Oc1cccc(-c2nc(N3CCOCC3)c3oc4ncccc4c3n2)c1`: 89%.

In the next experiment the target is CAMKK1 (human) (UniProt Q8N5S9). The description is as above. To be noted: compound 0.5 µM; ATP 10 µM.
On to `CNc1cc2c(Nc3cccc(Br)c3)ncnc2cn1`, for which the residual activity is 92.6%.
Same read-out and setting: to `O=C1Nc2ccc(Cl)cc2/C1=C/c1cc(Cl)c(O)c(Cl)c1` belongs 52.5%; to `Oc1cccc(-c2nc(N3CCOCC3)c3oc4ncccc4c3n2)c1`, 84.6%.

A further experiment deals with NEK9 (human) (UniProt Q8TD19). Described as above. Conditions: compound 0.5 µM; ATP 10 µM.
With `CNc1cc2c(Nc3cccc(Br)c3)ncnc2cn1`, the residual activity stood at 99.4%.
The same measure, in the same setting: next, `O=C1Nc2ccc(Cl)cc2/C1=C/c1cc(Cl)c(O)c(Cl)c1`: 103%; `Oc1cccc(-c2nc(N3CCOCC3)c3oc4ncccc4c3n2)c1`: 99.3%.

Another experiment has as its target GSK3B (human) (UniProt P49841). Described as above. To be noted: compound 0.5 µM; ATP 10 µM.
Regarding `CNc1cc2c(Nc3cccc(Br)c3)ncnc2cn1`, the residual activity came out at 89.6%.
The same measure, in the same setting: next, `O=C1Nc2ccc(Cl)cc2/C1=C/c1cc(Cl)c(O)c(Cl)c1`: 80.8%; `Oc1cccc(-c2nc(N3CCOCC3)c3oc4ncccc4c3n2)c1`: 94.8%.

Another experiment addresses EGFR (human) (UniProt P00533). Described as above. To be noted: compound 0.5 µM; ATP 10 µM.
As to `CNc1cc2c(Nc3cccc(Br)c3)ncnc2cn1`, the residual activity was 1.99%.
As for `O=C1Nc2ccc(Cl)cc2/C1=C/c1cc(Cl)c(O)c(Cl)c1`, the residual activity stood at 93.5%.
The same measure, in the same setting: next, `Oc1cccc(-c2nc(N3CCOCC3)c3oc4ncccc4c3n2)c1`: 83.8%.

A further experiment deals with GSG2 (human) (UniProt Q8TF76). Described as above. Conditions: compound 0.5 µM; ATP 10 µM.
`CNc1cc2c(Nc3cccc(Br)c3)ncnc2cn1`: the residual activity was 91.8%.
For the compound `O=C1Nc2ccc(Cl)cc2/C1=C/c1cc(Cl)c(O)c(Cl)c1`, the residual activity turned out to be 8.65%.
For `Oc1cccc(-c2nc(N3CCOCC3)c3oc4ncccc4c3n2)c1`, the residual activity stood at 90.3%.

Another experiment addresses STK3 (human) (UniProt Q13188). The description is as above. To be noted: compound 0.5 µM; ATP 10 µM.
For the compound `CNc1cc2c(Nc3cccc(Br)c3)ncnc2cn1`, the residual activity amounted to 99.9%.
The same measure, in the same setting: next, `O=C1Nc2ccc(Cl)cc2/C1=C/c1cc(Cl)c(O)c(Cl)c1`: 31.6%; `Oc1cccc(-c2nc(N3CCOCC3)c3oc4ncccc4c3n2)c1`: 105%.

A further experiment concerns the target SIK2 (human) (UniProt Q9H0K1). The description is as above. Conditions: compound 0.5 µM; ATP 10 µM.
As to `CNc1cc2c(Nc3cccc(Br)c3)ncnc2cn1`, the residual activity was determined as 98.3%.
For the compound `O=C1Nc2ccc(Cl)cc2/C1=C/c1cc(Cl)c(O)c(Cl)c1`, the residual activity worked out at 95%.
The same measure, in the same setting: next, `Oc1cccc(-c2nc(N3CCOCC3)c3oc4ncccc4c3n2)c1`: 98.9%.

A further experiment addresses RPS6KA4 KD2 (human) (UniProt O75676). Described as above. To be noted: compound 0.5 µM; ATP 10 µM.
As for `CNc1cc2c(Nc3cccc(Br)c3)ncnc2cn1`, the residual activity turned out to be 109%.
On to `O=C1Nc2ccc(Cl)cc2/C1=C/c1cc(Cl)c(O)c(Cl)c1`, for which the residual activity was found to be 98%.
Same read-out and setting: to `Oc1cccc(-c2nc(N3CCOCC3)c3oc4ncccc4c3n2)c1` belongs 104%.

Another experiment addresses ULK3 (human) (UniProt Q6PHR2). The experiment is described as above. Conditions: compound 0.5 µM; ATP 10 µM.
In the case of `CNc1cc2c(Nc3cccc(Br)c3)ncnc2cn1`, the residual activity came to 95.8%.
The same measure, in the same setting: next, `O=C1Nc2ccc(Cl)cc2/C1=C/c1cc(Cl)c(O)c(Cl)c1`: 92.2%; `Oc1cccc(-c2nc(N3CCOCC3)c3oc4ncccc4c3n2)c1`: 99.7%.

Another experiment addresses LIMK1 (human) (UniProt P53667). Described as above. Conditions: compound 0.5 µM; ATP 10 µM.
For `CNc1cc2c(Nc3cccc(Br)c3)ncnc2cn1`, the residual activity stood at 95.9%.
Take `O=C1Nc2ccc(Cl)cc2/C1=C/c1cc(Cl)c(O)c(Cl)c1`: the residual activity is 83.7%.
As for `Oc1cccc(-c2nc(N3CCOCC3)c3oc4ncccc4c3n2)c1`, the residual activity amounted to 93.7%.

For the next experiment, the target named is MAP3K7 TAB1 (human) (UniProt O43318+Q15750). The experiment is described as above. Conditions: compound 0.5 µM; ATP 10 µM.
Regarding `CNc1cc2c(Nc3cccc(Br)c3)ncnc2cn1`, the residual activity was determined as 94.9%.
On the same count and under the same terms, next, `O=C1Nc2ccc(Cl)cc2/C1=C/c1cc(Cl)c(O)c(Cl)c1`: 86.8%.
For `Oc1cccc(-c2nc(N3CCOCC3)c3oc4ncccc4c3n2)c1`, the residual activity was determined as 97.4%.

For another experiment, the target named is AURKA (human) (UniProt O14965). Described as above. Conditions: compound 0.5 µM; ATP 10 µM.
`CNc1cc2c(Nc3cccc(Br)c3)ncnc2cn1`: the residual activity is 85.1%.
Same read-out and setting: to `O=C1Nc2ccc(Cl)cc2/C1=C/c1cc(Cl)c(O)c(Cl)c1` belongs 64.2%; to `Oc1cccc(-c2nc(N3CCOCC3)c3oc4ncccc4c3n2)c1`, 91.9%.

In another experiment the target is PKN1 (human) (UniProt Q16512). Described as above. To be noted: compound 0.5 µM; ATP 10 µM.
For the compound `CNc1cc2c(Nc3cccc(Br)c3)ncnc2cn1`, the residual activity amounted to 103%.
Turning to `O=C1Nc2ccc(Cl)cc2/C1=C/c1cc(Cl)c(O)c(Cl)c1`, the residual activity was found to be 93%.
Take `Oc1cccc(-c2nc(N3CCOCC3)c3oc4ncccc4c3n2)c1`: the residual activity was found to be 101%.

A further experiment deals with CDK5 CDK5R1 p25 (human) (UniProt Q00535+Q15078). The description is as above. To be noted: compound 0.5 µM; ATP 10 µM.
Regarding `CNc1cc2c(Nc3cccc(Br)c3)ncnc2cn1`, the residual activity came to 82.9%.
Same read-out and setting: to `O=C1Nc2ccc(Cl)cc2/C1=C/c1cc(Cl)c(O)c(Cl)c1` belongs 82.6%; to `Oc1cccc(-c2nc(N3CCOCC3)c3oc4ncccc4c3n2)c1`, 77.9%.
